Test [1] deals with T1, Putative amino acid transporter PAT12 (Trypanosoma cruzi) (UniProt Q6QT93).
T1 sequence (whole entry): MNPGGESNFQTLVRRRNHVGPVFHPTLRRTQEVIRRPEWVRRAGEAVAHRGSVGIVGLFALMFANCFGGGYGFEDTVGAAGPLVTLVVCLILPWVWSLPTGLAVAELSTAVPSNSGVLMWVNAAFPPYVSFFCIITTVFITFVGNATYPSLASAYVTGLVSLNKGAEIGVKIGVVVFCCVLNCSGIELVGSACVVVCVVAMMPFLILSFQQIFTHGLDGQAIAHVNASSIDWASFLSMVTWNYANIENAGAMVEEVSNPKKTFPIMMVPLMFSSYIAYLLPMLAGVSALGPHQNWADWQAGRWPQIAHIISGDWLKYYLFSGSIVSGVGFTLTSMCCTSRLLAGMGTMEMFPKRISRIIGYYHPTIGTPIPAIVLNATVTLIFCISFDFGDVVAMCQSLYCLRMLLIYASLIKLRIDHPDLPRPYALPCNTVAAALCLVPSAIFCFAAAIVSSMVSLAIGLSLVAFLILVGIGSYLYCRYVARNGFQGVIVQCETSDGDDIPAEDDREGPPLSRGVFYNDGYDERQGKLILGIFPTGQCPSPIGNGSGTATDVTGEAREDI
Put plainly: Inhibition of Trypanosoma cruzi Y epimastigotes PAT12 assessed as reduction in initial velocity of [14C]-putrescine uptake at 50 uM in presence of non-radioactive putrescine by liquid scintillation counting method.

For test [2], the system named is Trypanosoma cruzi. Put plainly: Antitrypanosomal activity against Trypanosoma cruzi Y epimastigotes at 200 uM after 7 days by hemocytometry. The format is functional, organism-based.
For test [3], the system named is Trypanosoma cruzi. Put plainly: Antitrypanosomal activity against Trypanosoma cruzi Y epimastigotes after 7 days by hemocytometry. The format is functional, organism-based. The note with it: 168 h.
The subject of test [4] is Trypanosoma cruzi. Kind of test: Inhibition of Trypanosoma cruzi Y epimastigotes AAAP411 assessed as reduction in [1,4-14C]-arginine uptake in presence of non-radioactive arginine by liquid scintillation counting method.
For test [5], the system named is Trypanosoma cruzi. Kind of test: Antitrypanosomal activity against Trypanosoma cruzi Y epimastigotes at 100 uM after 7 days by hemocytometry. The format is functional, organism-based.

As a reminder, the IC50 is the concentration needed to halve the response being measured. A higher IC50 goes with lower potency.

Calls of active or inactive are those of the source. The rule behind the calls is not given here.

As for `CN(CCCOc1ccc2c(c1)OCO2)C1CCC(CO)CC1` (stereo not drawn), the inhibition entry in test [1] is “inactive”. The outcome in the test with Trypanosoma cruzi [2] was inactive.

For the molecule `NCc1ccccc1OC1CCCC1`, the inhibition result (in test [1]; in the test on Trypanosoma cruzi [4]) was “inactive” each time. In addition, the IC50 in the test on Trypanosoma cruzi [3] turned out to be 41.1 µM. Further, the outcome in the test with Trypanosoma cruzi [5] was Active.

`Cc1cccc(C)c1OCC(C)N` (racemic): the inhibition entry in test [1] is “inactive”. Moreover, in the test with Trypanosoma cruzi [2], the result was inactive.
